Our source for the TGI values is PubChem BioAssay (NCI).

SMILES strings stand for the structures.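 How tested: cells in 96-well plates exposed to compound for 48 hours at five concentrations. TGI denotes the concentration required for complete inhibition of growth.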 Some results are limits rather than exact numbers.

Test systems include UACC-257 melanoma; NCI-H226 lung; CCRF-CEM leukemia; ACHN renal; OVCAR-5 ovarian; SK-OV-3 ovarian; SK-MEL-2 melanoma; A549 NSCLC; NCI-H522 lung; MOLT-4 leukemia; T-47D breast.
Experiment in all cases: NCI-60 cell line screen, 48 h

For the compound `COc1nc2ccc(COc3ccc(C(=O)O)cc3)cc2nc1OC`, the TGI with UACC-257 melanoma was greater than 100 µM; in the assay on NCI-H226 lung, greater than 100 µM; in the assay on CCRF-CEM leukemia, 97.4 µM; with ACHN renal, greater than 100 µM; in the assay with OVCAR-5 ovarian, greater than 100 µM; in the assay on SK-OV-3 ovarian, greater than 100 µM. Also, the TGI with SK-MEL-2 melanoma, with A549 NSCLC, in the assay on NCI-H522 lung, in the assay on MOLT-4 leukemia and with T-47D breast was greater than 100 µM each time.

In the case of `O=C(Cn1c(C(=O)c2ccccc2)nc2ccccc21)c1ccccc1`, the TGI in the assay on UACC-257 melanoma, in the assay with NCI-H226 lung, in the assay with CCRF-CEM leukemia, in the assay with ACHN renal, with OVCAR-5 ovarian and in the assay with SK-OV-3 ovarian was greater than 100 µM each time. For the same compound, the TGI in the assay on SK-MEL-2 melanoma, in the assay on A549 NSCLC, with NCI-H522 lung, in the assay with MOLT-4 leukemia and with T-47D breast was greater than 100 µM throughout.

As to `COC1(CC[C@@H](C)COC2OC(CO)C(O)C(O)C2O)O[C@H]2C[C@H]3[C@@H]4CC=C5C[C@@H](OC6OC(CO)C(O)C(OC7OC(CO)C(O)C(O)C7O)C6OC6OC(C)C(O)C(O)C6O)CC[C@]5(C)[C@H]4CC[C@]3(C)[C@H]2[C@@H]1C` (some centres not stated), the TGI with UACC-257 melanoma was 26.3 µM; in the assay with NCI-H226 lung it was 26.5 µM; in the assay on CCRF-CEM leukemia it was greater than 100 µM; in the assay on ACHN renal it was 30.1 µM; in the assay on OVCAR-5 ovarian, greater than 39.4 µM; in the assay on SK-OV-3 ovarian it was 15 µM. For the same compound, the TGI with SK-MEL-2 melanoma is 29.2 µM; with A549 NSCLC, 9.36 µM; in the assay on NCI-H522 lung, 15.3 µM; in the assay on MOLT-4 leukemia it was greater than 31.6 µM; with T-47D breast, 25.9 µM.

For the compound `CC1(C)COC2=C(C1)C(=O)c1ccccc1C2=O`, the TGI turned out to be 2.11 µM in the assay with UACC-257 melanoma; 4.8 µM in the assay on NCI-H226 lung; 5.77 µM with CCRF-CEM leukemia; 2.9 µM with ACHN renal; 3.15 µM with OVCAR-5 ovarian; 3.72 µM in the assay on SK-OV-3 ovarian. Moreover, the TGI in the assay on SK-MEL-2 melanoma turned out to be 3.88 µM; with A549 NSCLC, 4.76 µM; with NCI-H522 lung, 3.8 µM; with MOLT-4 leukemia, 3.91 µM; in the assay on T-47D breast, 2.44 µM.

In the case of `C(#CP(c1ccccc1)c1ccccc1)P(C#CP(c1ccccc1)c1ccccc1)c1ccccc1`, the TGI with UACC-257 melanoma is greater than 100 µM; in the assay with NCI-H226 lung it was greater than 100 µM; with CCRF-CEM leukemia it was greater than 100 µM; in the assay on ACHN renal it was greater than 100 µM; in the assay on OVCAR-5 ovarian, greater than 100 µM; in the assay on SK-OV-3 ovarian, 26.1 µM. The TGI in the assay with SK-MEL-2 melanoma, with A549 NSCLC, in the assay with NCI-H522 lung, with MOLT-4 leukemia and with T-47D breast was greater than 100 µM each time.

In the case of `O=C1CSC(c2ccc(Cl)cc2Cl)N1c1ccc(Oc2ccc(Cl)cc2)c(Cl)c1` (configuration not stated), the TGI was greater than 100 µM in the assay with UACC-257 melanoma; greater than 100 µM with NCI-H226 lung; 61.3 µM in the assay with CCRF-CEM leukemia; greater than 100 µM in the assay on ACHN renal; greater than 100 µM with OVCAR-5 ovarian; 85.6 µM with SK-OV-3 ovarian. For the same compound, the TGI with SK-MEL-2 melanoma is 72.7 µM; in the assay on A549 NSCLC, greater than 100 µM; in the assay with NCI-H522 lung, 31.5 µM; in the assay on MOLT-4 leukemia it was 81.5 µM; in the assay on T-47D breast it was 90.1 µM.

In the case of `Nc1nc(Cl)c(Cl)c(NCC2(O)CCC2)n1`, the TGI in the assay on UACC-257 melanoma, in the assay with NCI-H226 lung, in the assay with CCRF-CEM leukemia, with ACHN renal, with OVCAR-5 ovarian and in the assay on SK-OV-3 ovarian was greater than 100 µM throughout. The TGI with SK-MEL-2 melanoma was greater than 100 µM; in the assay on A549 NSCLC it was greater than 100 µM; in the assay with NCI-H522 lung, 40.9 µM; in the assay with MOLT-4 leukemia it was greater than 100 µM; in the assay on T-47D breast, 64.2 µM.

With `C/C(=N\O)c1cccc[n+]1Cc1ccccc1`, the TGI in the assay on UACC-257 melanoma, in the assay on NCI-H226 lung, with CCRF-CEM leukemia, with ACHN renal, with OVCAR-5 ovarian and with SK-OV-3 ovarian was greater than 100 µM each time. The TGI with SK-MEL-2 melanoma, in the assay on A549 NSCLC, in the assay on NCI-H522 lung, in the assay with MOLT-4 leukemia and in the assay with T-47D breast was greater than 100 µM in each case.

Consider `O=C(Nc1ccc(S(=O)(=O)/N=c2\ncccn2C(=O)C(C(F)(F)F)C(F)(F)F)cc1)C(C(F)(F)F)C(F)(F)F`, for which the TGI with UACC-257 melanoma, with NCI-H226 lung, in the assay with CCRF-CEM leukemia, in the assay with ACHN renal, with OVCAR-5 ovarian and with SK-OV-3 ovarian was greater than 100 µM each time. Also, the TGI with SK-MEL-2 melanoma, in the assay on A549 NSCLC, in the assay on NCI-H522 lung, with MOLT-4 leukemia and in the assay on T-47D breast was greater than 100 µM in each case.

As for `C(=Nc1ccc(-c2nc3ccccc3s2)cc1)c1ccc[nH]1`, the TGI with UACC-257 melanoma worked out at 31.2 µM; in the assay on NCI-H226 lung it was 35.6 µM; with CCRF-CEM leukemia it was 57.4 µM; in the assay with ACHN renal it was 60.7 µM; in the assay with OVCAR-5 ovarian, 51.4 µM; with SK-OV-3 ovarian, 51.6 µM. The TGI in the assay with SK-MEL-2 melanoma is 32 µM; with A549 NSCLC it was greater than 100 µM; with NCI-H522 lung, 28 µM; in the assay on MOLT-4 leukemia, 38.8 µM; with T-47D breast, 47.3 µM.

In the case of `O=C(O)/C=C/c1ccc2c(c1)CC1(Cc3ccccc3C1)C2`, the TGI in the assay with UACC-257 melanoma is greater than 100 µM; in the assay on NCI-H226 lung it was 99.4 µM; in the assay on CCRF-CEM leukemia, greater than 100 µM; in the assay on ACHN renal, greater than 100 µM; in the assay with OVCAR-5 ovarian, greater than 100 µM; in the assay with SK-OV-3 ovarian, greater than 100 µM. Also, the TGI in the assay with SK-MEL-2 melanoma was 87.7 µM; with A549 NSCLC it was greater than 100 µM; in the assay with NCI-H522 lung, greater than 100 µM; with MOLT-4 leukemia, greater than 100 µM; in the assay on T-47D breast, greater than 100 µM.

Consider `COc1ccccc1C1(c2c(OC)c(=O)c2=O)SCCCS1`, for which the TGI with UACC-257 melanoma, with NCI-H226 lung, in the assay with CCRF-CEM leukemia, in the assay on ACHN renal, in the assay on OVCAR-5 ovarian and with SK-OV-3 ovarian was greater than 100 µM in each case. The TGI in the assay on SK-MEL-2 melanoma, with A549 NSCLC, in the assay with NCI-H522 lung, in the assay on MOLT-4 leukemia and in the assay with T-47D breast was greater than 100 µM throughout.
